Source: ChEMBL document CHEMBL1156421, “ApoA-I mimetic peptides with differing ability to inhibit atherosclerosis also exhibit differences in their interactions with membrane bilayers” (J Biol Chem, 2007)

Experiments:
Mus musculus [1] = assay: Cmax in apoE deficient C57BL/6J mouse at 20 ug, ip; format: ADME, organism-based; design: dose 20 ug, route intraperitoneal; conditions: in vivo, at 20 µg
Mus musculus [2] = assay: Antiinflammatory activity in apoE deficient C57BL/6J mouse assessed as inhibition of atherosclerosis lesion area at 20 ug/day, ip administered for 4 weeks measured after 6 weeks; format: functional
[3] = Time to Cmax in apoE deficient C57BL/6J mouse at 20 ug, ip; format: ADME, organism-based; conditions: in vivo
[4] = Elimination half life in apoE deficient C57BL/6J mouse at 20 ug, ip; format: ADME, organism-based; conditions: in vivo

Cmax (Mus musculus [1]) [%] | Tmax [3] [min] | half-life [4] [min] | Structure (SMILES) | Activity (Mus musculus [2]) [um2]
12.29 | 28.8 | 126 | CC(C)C[C@H](NC(=O)[C@H](Cc1c[nH]c2ccccc12)NC(=O)[C@H](CC(=O)O)NC([14CH3])=O)C(=O)N[C@@H](CCCCN)C(=O)N[C@@H](C)C(=O)N[C@@H](Cc1ccccc1)C(=O)N[C@@H](Cc1ccc(O)cc1)C(=O)N[C@@H](CC(=O)O)C(=O)N[C@@H](CCCCN)C(=O)N[C@H](C(=O)N[C@@H](C)C(=O)N[C@@H](CCC(=O)O)C(=O)N[C@@H](CCCCN)C(=O)N[C@@H](Cc1ccccc1)C(=O)N[C@@H](CCCCN)C(=O)N[C@@H](CCC(=O)O)C(=O)N[C@@H](C)C(=O)N[C@@H](Cc1ccccc1)C(N)=O)C(C)C | 20400
5.52 | 16.8 | 32.4 | CC(C)C[C@H](NC(=O)[C@H](Cc1ccccc1)NC(=O)[C@H](CCC(=O)O)NC(=O)[C@H](CCCCN)NC(=O)[C@H](Cc1ccccc1)NC(=O)[C@H](C)NC(=O)[C@H](CCC(=O)O)NC(=O)[C@H](C)NC(=O)[C@H](Cc1ccccc1)NC(=O)[C@H](CCCCN)NC(=O)[C@H](CC(=O)O)NC(=O)[C@H](Cc1ccc(O)cc1)NC(=O)[C@@H](NC(=O)[C@H](C)NC(=O)[C@H](CCCCN)NC(=O)[C@H](Cc1c[nH]c2ccccc12)NC(=O)[C@H](CCCCN)NC(=O)[C@H](CC(=O)O)NC([14CH3])=O)C(C)C)C(N)=O | 15800
